# Data taken from PMC9395446, “First-in-human phase 1/1b study to evaluate sitravatinib in patients with advanced solid tumors” (Investigational New Drugs, 2022).
# Several values for one entry are separate records, joined by “and”; a condition that tells them apart may be missing. Identical values can stand only once. Like-named read-outs stand apart in the source and are kept apart here.
# Legend:
# [1] = Plasma pharmacokinetics after single and multiple oral doses (noncompartmental analysis); format: in vivo, human; settings: for AUC / AUC(0-t) / AUC(0-inf) / Vd/F / half-life / Tmax: human, plasma; for AUC(0-t): read-out: AUClast, geometric mean (CV%); for AUC(0-inf): read-out: AUC∞, geometric mean (CV%); for Vd/F: read-out: Vz/F, geometric mean (CV%); for Tmax: po
# Method: In the PK lead-in period, patients received a single oral dose of sitravatinib (10–200 mg) under fasted conditions with at least 200 mL of water, followed by PK sample collection for 3–7 days, depending on emerging PK information. After the PK lead-in period, patients commenced the daily regimen planned for their cohort. Blood samples were collected pre-dose and 0.5 (for 10 mg only), 1, 2, 4, 6, 8, 12, 24, 36, 48, 72 and 168 (for 20–200 mg dose levels) h post-dose from patients following a single oral dose, and at pre-dose, 0.5, 1, 2, 4, 6, 8, 12 and 24 h post-dose following multiple oral doses for the 10–200 mg levels.
# (§1) PK samples were collected after a single dose during the PK lead-in period and following multiple oral doses during the study. Plasma PK samples were assayed for quantification of sitravatinib. The lower limit of quantification was 0.05 ng/mL. PK parameters were determined using a noncompartmental analysis approach including maximum (peak) concentration (Cmax), time to reach Cmax following drug administration (tmax), area under the plasma concentration–time curves (AUCs), apparent total clearance of the drug from plasma after oral administration, apparent volume of distribution during the terminal phase after administration and terminal elimination half-life (t1/2). PD effects were examined by analyzing VEGF-A ligand and soluble (s)-VEGF-R2 levels in patients’ plasma samples collected before and after sitravatinib administration.
# [2] = system: VEGF-R2; assay: Pharmacodynamic plasma markers VEGF-A and s-VEGF-R2, exposure-response analysis; format: in vivo, human
# Method: as §1
# [3] = rat, in vivo, 4 weeks
# Method: The starting dose of 10 mg QD was selected based on non-clinical, 4-week toxicology studies conducted in rats and dogs. […] The proposed human dose was based on one-tenth of the STD10 in rats corrected for body surface area (mg/m^2).
# [4] = system: target RTKs, including AXL, MERTK, VEGF-R, KIT and MET; settings: read-out: Biochemical half-maximal inhibitory concentration, range; against target RTKs; cited from earlier work
smiles,measurement,setting,value
"COCCNCc1ccc(-c2cc3nccc(Oc4ccc(NC(=O)C5(C(=O)Nc6ccc(F)cc6)CC5)cc4F)c3s2)nc1 [sitravatinib, Sitravatinib]",AUC,"[1]; oral, 110 mg QD, Cycle 1 Day 15, read-out: AUCτ,ss, geometric mean (CV%)",2250 ng·h/mL
same,AUC,"[1]; oral, 120 mg QD, Cycle 1 Day 15, read-out: AUCτ,ss, geometric mean (CV%)",1600 ng·h/mL
same,AUC,"[1]; oral, 150 mg QD, Cycle 1 Day 15, read-out: AUCτ,ss, geometric mean (CV%)",2180 ng·h/mL
same,AUC,"[1]; oral, 200 mg QD, Cycle 1 Day 15, single patient result, read-out: AUCτ,ss",4130 ng·h/mL
same,AUC(0-t),"[1]; oral, single dose 10 mg",149 ng·h/mL
same,AUC(0-inf),"[1]; oral, single dose 10 mg",165 ng·h/mL
same,Vd/F,"[1]; oral, single dose 10 mg",3720 L
same,half-life,"[1]; oral, single dose 10 mg, read-out: t1/2, arithmetic mean (CV%) (converted)",43.6 h
same,AUC(0-t),"[1]; oral, single dose 20 mg",300 ng·h/mL
same,AUC(0-inf),"[1]; oral, single dose 20 mg",501 ng·h/mL
same,Vd/F,"[1]; oral, single dose 20 mg",2500 L
same,half-life,"[1]; oral, single dose 20 mg, read-out: t1/2, arithmetic mean (CV%) (converted)",47 h
same,AUC(0-t),"[1]; oral, single dose 40 mg",509 ng·h/mL
same,AUC(0-inf),"[1]; oral, single dose 40 mg",478 ng·h/mL
same,Vd/F,"[1]; oral, single dose 40 mg",5610 L
same,half-life,"[1]; oral, single dose 40 mg, read-out: t1/2, arithmetic mean (CV%) (converted)",46.5 h
same,AUC(0-t),"[1]; oral, single dose 80 mg",1430 ng·h/mL
same,AUC(0-inf),"[1]; oral, single dose 80 mg",1540 ng·h/mL
same,Vd/F,"[1]; oral, single dose 80 mg",3360 L
same,half-life,"[1]; oral, single dose 80 mg, read-out: t1/2, arithmetic mean (CV%) (converted)",46.2 h
same,AUC(0-t),"[1]; oral, single dose 110 mg",2030 ng·h/mL
same,AUC(0-inf),"[1]; oral, single dose 110 mg",2920 ng·h/mL
same,Vd/F,"[1]; oral, single dose 110 mg",2410 L
same,half-life,"[1]; oral, single dose 110 mg, read-out: t1/2, arithmetic mean (CV%) (converted)",44.7 h
same,AUC(0-t),"[1]; oral, single dose 120 mg",1210 ng·h/mL
same,AUC(0-inf),"[1]; oral, single dose 120 mg",1320 ng·h/mL
same,Vd/F,"[1]; oral, single dose 120 mg",6370 L
same,half-life,"[1]; oral, single dose 120 mg, read-out: t1/2, arithmetic mean (CV%) (converted)",49.3 h
same,AUC(0-t),"[1]; oral, single dose 150 mg",2940 ng·h/mL
same,AUC(0-inf),"[1]; oral, single dose 150 mg",3560 ng·h/mL
same,Vd/F,"[1]; oral, single dose 150 mg",2510 L
same,half-life,"[1]; oral, single dose 150 mg, read-out: t1/2, arithmetic mean (CV%) (converted)",42.1 h
same,AUC(0-t),"[1]; oral, single dose 200 mg",3300 ng·h/mL
same,AUC(0-inf),"[1]; oral, single dose 200 mg",4000 ng·h/mL
same,Vd/F,"[1]; oral, single dose 200 mg",3660 L
same,half-life,"[1]; oral, single dose 200 mg, read-out: t1/2, arithmetic mean (CV%) (converted)",51.5 h
same,Tmax,"[1]; multiple oral 10–150 mg QD, fasting, read-out: Median tmax,ss, range across dose levels",2 to 8.13 h
same,Tmax,"[1]; single oral 10–200 mg, fasting, read-out: Median tmax, range across dose levels",3.02 to 8.87 h
same,half-life,"[1]; single oral 10–200 mg, fasting, read-out: Arithmetic mean terminal elimination t1/2, range across dose levels",42.1 to 51.5 h
same,"AUCτ,ss accumulation ratio, range",[1]; multiple QD doses,2.13–8.34
same,"Cmax,ss accumulation ratio, range",[1]; multiple QD doses,1.82–6.89
same,Dose proportionality of exposure (Cmax and AUCs),"[1]; single and multiple doses 10–200 mg, power model",approximately dose-proportional
same,"CL/F, geometric mean (CV%)",[1]; single dose 10 mg,60.5 (58.3); 3 L/h
same,"CL/F, geometric mean (CV%)",[1]; single dose 20 mg,39.9 (63.4); 3 L/h
same,"CL/F, geometric mean (CV%)",[1]; single dose 40 mg,83.7 (194.6); 4 L/h
same,"CL/F, geometric mean (CV%)",[1]; single dose 80 mg,52.0 (104.1); 7 L/h
same,"CL/F, geometric mean (CV%)",[1]; single dose 110 mg,37.6 (61.0); 3 L/h
same,"CL/F, geometric mean (CV%)",[1]; single dose 120 mg,91.2 (109.5); 4 L/h
same,"CL/F, geometric mean (CV%)",[1]; single dose 150 mg,42.1 (63.7); 12 L/h
same,"CL/F, geometric mean (CV%)",[1]; single dose 200 mg,50.0 (126.1); 3 L/h
same,Peak to trough ratio (PTR) in plasma at steady state,[1]; steady state,1.5–2.1 fold and 1.5- to 2.1 fold
same,EC50,"[2]; Homo sapiens, plasma PD markers, drug target VEGF-R2, read-out: EC50 from exposure-response analysis",0.0309 µg/mL
same,VEGF-A percent change from baseline (increase),"[2]; plasma, after sitravatinib administration",200%
same,Highest dose not exceeding the severely toxic dose in 10% of animals (STD10),[3],10 mg/kg
same,IC50,[4],1.5 to 20 nM
